Test results taken from US6355799B1, “Substituted benzene compounds, process for their preparation, and herbicidal and defoliant compositions containing them” (ISK Americas Incorporated, priority 1997, dated 2002).

How the values were obtained:
Assay type in all cases: in vivo
[1] = tested on: field corn (Zea mays L., var. Dekalb 535, CORN); test: Post-emerge test, crop safety; details: post-emerge, 14 days after application, rating scale 0-100
Summary of the method: (§1)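 Visual ratings on a 0-100 scale (0 no damage, 100 all plants dead) were taken at 14 days after treatment. Rates of 15-1000 g ai/ha in acetone, 187 l/ha, were sprayed onto soil one day after planting (pre-emerge) or onto 2-3 leaf plants with 0.25% v/v surfactant (post-emerge).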

[2] = tested on: upland rice (Oryza sp., var. Tebonnet, RICE); test: Post-emerge test, crop safety; details: post-emerge, 14 days after application, rating scale 0-100
Summary of the method: as §1

[3] = tested on: redroot pigweed (Amaranthus retroflexus, AMARE); test: Pre-emerge test, greenhouse herbicide activity screening; details: phytotoxicity rating 0-100, 14 days after application
Summary of the method: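 Compounds in acetone were track-sprayed at 187 l/ha, 15–1000 g ai/ha, onto sandy loam pots. Pre-emerge seeds were sown one day before spraying, with surface watering afterwards. Post-emerge plants were at the 2–3 leaf stage and sprayed with 0.25% v/v non-ionic surfactant. Injury was rated 0–100 at 14 days.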

[4] = tested on: lambsquarters (Chenopodium album, CHEAL); test: Post-emerge test, greenhouse herbicide activity screening; details: post-emerge, 14 days after application, rating scale 0-100
Summary of the method: (§2)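 Fourteen days after spraying, crop and weed injury was graded visually from 0, no effect, to 100, every plant dead. Test substances were dissolved in acetone and applied at 15–1000 g ai/ha with a flat-fan nozzle. Application was either pre-emergence, one day after sowing, or post-emergence at the 2–3 leaf stage.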

[5] = tested on: sicklepod (Cassia obtusifolia, CASOB); test: as above; details: post-emerge, 14 days after application, rating scale 0-100
Summary of the method: as §2

[6] = tested on: large crabgrass (Digitaria sanguinalis, DIGSA); test: as above; details: post-emerge, 14 days after application, rating scale 0-100
Summary of the method: as §2

[7] = tested on: barnyardgrass (Echinochloa crus-galli, ECHCG); test: as above; details: post-emerge, 14 days after application, rating scale 0-100
Summary of the method: as §2

[8] = tested on: velvetleaf (Abutilon theophrasti, ABUTH); test: as above; details: post-emerge, 14 days after application, rating scale 0-100
Summary of the method: as §2

[9] = tested on: green foxtail (Setaria viridis, SETVI); test: as above; details: post-emerge, 14 days after application, rating scale 0-100
Summary of the method: as §2

[10] = tested on: ivyleaf morningglory (Ipomoea hederacea, IPOHE); test: as above; details: post-emerge, 14 days after application, rating scale 0-100
Summary of the method: as §2

[11] = tested on: johnsongrass (Sorghum halepense, SORHA); test: as above; details: post-emerge, 14 days after application, rating scale 0-100
Summary of the method: as §2

[12] = tested on: redroot pigweed (Amaranthus retroflexus, AMARE); test: as above; details: post-emerge, 14 days after application
Summary of the method: as §2

[13] = tested on: field corn (Zea mays L., var. Dekalb 535, CORN); test: Pre-emerge test, crop safety; details: crop damage rating 0-100, 14 days after application
Summary of the method: (§3)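 Rating: 0–100 visual injury, 14 DAA. Application: acetone, 187 l/ha, 15–1000 g ai/ha, flat-fan track sprayer with nozzle 40–45 cm above soil or canopy. Post-emerge runs used 0.25% v/v surfactant on 2–3 leaf plants.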

[14] = tested on: upland rice (Oryza sp., var. Tebonnet, RICE); test: Pre-emerge test, crop safety; details: crop damage rating 0-100, 14 days after application
Summary of the method: as §3

[15] = tested on: lambsquarters (Chenopodium album, CHEAL); test: Pre-emerge test, greenhouse herbicide activity screening; details: phytotoxicity rating 0-100, 14 days after application
Summary of the method: as §1

[16] = tested on: sicklepod (Cassia obtusifolia, CASOB); test: as above; details: phytotoxicity rating 0-100, 14 days after application
Summary of the method: as §1

[17] = tested on: large crabgrass (Digitaria sanguinalis, DIGSA); test: as above; details: phytotoxicity rating 0-100, 14 days after application
Summary of the method: as §1

[18] = tested on: barnyardgrass (Echinochloa crus-galli, ECHCG); test: as above; details: phytotoxicity rating 0-100, 14 days after application
Summary of the method: as §1

[19] = tested on: velvetleaf (Abutilon theophrasti, ABUTH); test: as above; details: phytotoxicity rating 0-100, 14 days after application
Summary of the method: as §1

[20] = tested on: green foxtail (Setaria viridis, SETVI); test: as above; details: phytotoxicity rating 0-100, 14 days after application
Summary of the method: as §1

[21] = tested on: ivyleaf morningglory (Ipomoea hederacea, IPOHE); test: as above; details: phytotoxicity rating 0-100, 14 days after application
Summary of the method: as §1

[22] = tested on: johnsongrass (Sorghum halepense, SORHA); test: as above; details: phytotoxicity rating 0-100, 14 days after application
Summary of the method: as §1

[23] = 63 g ai/ha, rating scale 0-100 (0 no damage, 100 complete death)
[24] = 250 g ai/ha, rating scale 0-100

Cn1c(C(F)(F)F)cc(=O)n(-c2ccc(OC(F)(F)F)cc2NC(=O)c2ccc3ccccc3c2)c1=O [2-203]
phytotoxicity rating CORN (crop damage) ([1]; 63 g ai/ha): 10 | phytotoxicity rating CORN (crop damage) ([1]; 250 g ai/ha): 10 | phytotoxicity rating RICE (crop damage) ([2]; 63 g ai/ha): 25 | phytotoxicity rating RICE (crop damage) ([2]; 250 g ai/ha): 30 | Pre-emerge Herbicidal Activity AMARE ([3]; 63 g ai/ha): 70 | Pre-emerge Herbicidal Activity AMARE ([3]; 250 g ai/ha): 100 | phytotoxicity rating CHEAL ([4]; 63 g ai/ha): 100 | phytotoxicity rating CHEAL ([4]; 250 g ai/ha): 100 | phytotoxicity rating CASOB ([5]; 63 g ai/ha): 100 | phytotoxicity rating CASOB ([5]; 250 g ai/ha): 100 | phytotoxicity rating DIGSA ([6]; 63 g ai/ha): 10 | phytotoxicity rating DIGSA ([6]; 250 g ai/ha): 30 | phytotoxicity rating ECHCG ([7]; 63 g ai/ha): 10 | phytotoxicity rating ECHCG ([7]; 250 g ai/ha): 30 | phytotoxicity rating ABUTH ([8]; 63 g ai/ha): 100 | phytotoxicity rating ABUTH ([8]; 250 g ai/ha): 100 | phytotoxicity rating SETVI ([9]; 63 g ai/ha): 20 | phytotoxicity rating SETVI ([9]; 250 g ai/ha): 30 | phytotoxicity rating IPOHE ([10]; 63 g ai/ha): 60 | phytotoxicity rating IPOHE ([10]; 250 g ai/ha): 95 | phytotoxicity rating SORHA ([11]; 63 g ai/ha): 10 | phytotoxicity rating SORHA ([11]; 250 g ai/ha): 20 | phytotoxicity rating AMARE [12, 23]: 100 | phytotoxicity rating AMARE [12, 24]: 100 | Pre-emerge Herbicidal Activity CORN ([13]; 63 g ai/ha): 0 | Pre-emerge Herbicidal Activity CORN ([13]; 250 g ai/ha): 0 | Pre-emerge Herbicidal Activity RICE ([14]; 63 g ai/ha): 10 | Pre-emerge Herbicidal Activity RICE ([14]; 250 g ai/ha): 20 | Pre-emerge Herbicidal Activity CHEAL ([15]; 63 g ai/ha): 100 | Pre-emerge Herbicidal Activity CHEAL ([15]; 250 g ai/ha): 100 | Pre-emerge Herbicidal Activity CASOB ([16]; 63 g ai/ha): 30 | Pre-emerge Herbicidal Activity CASOB ([16]; 250 g ai/ha): 90 | Pre-emerge Herbicidal Activity DIGSA ([17]; 63 g ai/ha): 60 | Pre-emerge Herbicidal Activity DIGSA ([17]; 250 g ai/ha): 90 | Pre-emerge Herbicidal Activity ECHCG ([18]; 63 g ai/ha): 0 | Pre-emerge Herbicidal Activity ECHCG ([18]; 250 g ai/ha): 80 | Pre-emerge Herbicidal Activity ABUTH ([19]; 63 g ai/ha): 75 | Pre-emerge Herbicidal Activity ABUTH ([19]; 250 g ai/ha): 100 | Pre-emerge Herbicidal Activity SETVI ([20]; 63 g ai/ha): 20 | Pre-emerge Herbicidal Activity SETVI ([20]; 250 g ai/ha): 70 | Pre-emerge Herbicidal Activity IPOHE ([21]; 63 g ai/ha): 10 | Pre-emerge Herbicidal Activity IPOHE ([21]; 250 g ai/ha): 70 | Pre-emerge Herbicidal Activity SORHA ([22]; 63 g ai/ha): 0 | Pre-emerge Herbicidal Activity SORHA ([22]; 250 g ai/ha): 40

COc1c(Cl)cc(F)c(-n2c(=O)cc(C(F)(F)F)n(C)c2=O)c1NC(=O)C1CC1 [2-206]
phytotoxicity rating CORN (crop damage) ([1]; 63 g ai/ha): 0 | phytotoxicity rating CORN (crop damage) ([1]; 250 g ai/ha): 0 | phytotoxicity rating RICE (crop damage) ([2]; 63 g ai/ha): 0 | phytotoxicity rating RICE (crop damage) ([2]; 250 g ai/ha): 70 | Pre-emerge Herbicidal Activity AMARE ([3]; 63 g ai/ha): 0 | Pre-emerge Herbicidal Activity AMARE ([3]; 250 g ai/ha): 80 | phytotoxicity rating CHEAL ([4]; 63 g ai/ha): 50 | phytotoxicity rating CHEAL ([4]; 250 g ai/ha): 70 | phytotoxicity rating CASOB ([5]; 63 g ai/ha): 50 | phytotoxicity rating CASOB ([5]; 250 g ai/ha): 80 | phytotoxicity rating DIGSA ([6]; 63 g ai/ha): 30 | phytotoxicity rating DIGSA ([6]; 250 g ai/ha): 20 | phytotoxicity rating ECHCG ([7]; 63 g ai/ha): 0 | phytotoxicity rating ECHCG ([7]; 250 g ai/ha): 30 | phytotoxicity rating ABUTH ([8]; 63 g ai/ha): 50 | phytotoxicity rating ABUTH ([8]; 250 g ai/ha): 90 | phytotoxicity rating SETVI ([9]; 63 g ai/ha): 0 | phytotoxicity rating SETVI ([9]; 250 g ai/ha): 0 | phytotoxicity rating IPOHE ([10]; 63 g ai/ha): 70 | phytotoxicity rating IPOHE ([10]; 250 g ai/ha): 90 | phytotoxicity rating SORHA ([11]; 63 g ai/ha): 0 | phytotoxicity rating SORHA ([11]; 250 g ai/ha): 0 | phytotoxicity rating AMARE [12, 23]: 20 | phytotoxicity rating AMARE [12, 24]: 50 | Pre-emerge Herbicidal Activity CORN ([13]; 63 g ai/ha): 50 | Pre-emerge Herbicidal Activity CORN ([13]; 250 g ai/ha): 100 | Pre-emerge Herbicidal Activity RICE ([14]; 63 g ai/ha): 60 | Pre-emerge Herbicidal Activity RICE ([14]; 250 g ai/ha): 80 | Pre-emerge Herbicidal Activity CHEAL ([15]; 63 g ai/ha): 50 | Pre-emerge Herbicidal Activity CHEAL ([15]; 250 g ai/ha): 100 | Pre-emerge Herbicidal Activity CASOB ([16]; 63 g ai/ha): 20 | Pre-emerge Herbicidal Activity CASOB ([16]; 250 g ai/ha): 60 | Pre-emerge Herbicidal Activity DIGSA ([17]; 63 g ai/ha): 0 | Pre-emerge Herbicidal Activity DIGSA ([17]; 250 g ai/ha): 80 | Pre-emerge Herbicidal Activity ECHCG ([18]; 63 g ai/ha): 0 | Pre-emerge Herbicidal Activity ECHCG ([18]; 250 g ai/ha): 90 | Pre-emerge Herbicidal Activity ABUTH ([19]; 63 g ai/ha): 70 | Pre-emerge Herbicidal Activity ABUTH ([19]; 250 g ai/ha): 100 | Pre-emerge Herbicidal Activity SETVI ([20]; 63 g ai/ha): 0 | Pre-emerge Herbicidal Activity SETVI ([20]; 250 g ai/ha): 70 | Pre-emerge Herbicidal Activity IPOHE ([21]; 63 g ai/ha): 50 | Pre-emerge Herbicidal Activity IPOHE ([21]; 250 g ai/ha): 90 | Pre-emerge Herbicidal Activity SORHA ([22]; 63 g ai/ha): 0 | Pre-emerge Herbicidal Activity SORHA ([22]; 250 g ai/ha): 40
